Test system: ArH(P)PR
Assay: photometric NAD(P)H oxidation at […] nm, Michaelis-Menten fit
Type: biochemical, Actaea racemosa
Details: 0.1 M KPi pH 7.5
[1] = co-substrate concentration not in main text (Suppl. Table S3)

Row | SMILES | Km (1 mM NADPH) | further results
1 | O=C(O)C(=O)Cc1ccc(O)c(O)c1 [DHPP, 3,4-dihydroxyphenylpyruvic acid] | 24000 ± 4650 µM | 
2 | NC(=O)C1=CN([C@@H]2O[C@H](COP(=O)(O)OP(=O)(O)OC[C@H]3O[C@@H](n4cnc5c(N)ncnc54)[C@H](O)[C@@H]3O)[C@@H](O)[C@H]2O)C=CC1 [NADH] |  | Km [1]: 660 ± 90 µM
3 | NC(=O)C1=CN([C@@H]2O[C@H](COP(=O)(O)OP(=O)(O)OC[C@H]3O[C@@H](n4cnc5c(N)ncnc54)[C@H](OP(=O)(O)O)[C@@H]3O)[C@@H](O)[C@H]2O)C=CC1 [NADPH] |  | Km [1]: 23 ± 4 µM
4 | O=C(O)C(=O)Cc1ccc(O)cc1 [pHPP, 4-hydroxyphenylpyruvic acid] | 1130 ± 120 µM | 
5 | O=C(O)C(=O)CO [β-HP, β-hydroxypyruvic acid] |  | Km (1 mM NADPH, error is SEM, substrate inhibition above 1 mM): 260 ± 120 µM

Further lines, with some results ahead:

Row | Km (1 mM NADPH) | SMILES | further results
6 | 1890 ± 510 µM | CC(=O)C(=O)O [P, pyruvic acid] | 
7 | 5320 ± 2770 µM | O=C(O)C(=O)Cc1ccccc1 [PP, phenylpyruvic acid] | 

Reference: paper PMC10978636, “Hydroxy(phenyl)pyruvic acid reductase in Actaea racemosa L.: a putative enzyme in cimicifugic and fukinolic acid biosynthesis” (Planta, 2024)
